Results published in article PMC11822212, “High-throughput screening identifies Aurora kinase B as a critical therapeutic target for Merkel cell carcinoma” (Nature Communications, 2025).

Legend:
[1] = test system: HEK293T cells; experiment: qHTS cell viability (CellTiter-Glo, 72 h; primary screen), control cell line; assay type: cell-based, human
[2] = test system: UISO cells (VN-MCC); experiment: qHTS cell viability (CellTiter-Glo, 72 h; primary and follow-up small molecule screen); assay type: cell-based, human
[3] = test system: MKL-1 cells (VP-MCC); experiment: as above; assay type: cell-based, human
[4] = test system: MKL-2 cells (VP-MCC); experiment: as above; assay type: cell-based, human
[5] = test system: WAGA cells (VP-MCC); experiment: as above; assay type: cell-based, human
[6] = test system: CRL-7250 cells; experiment: qHTS cell viability (CellTiter-Glo, 72 h; primary screen), control cell line; assay type: cell-based
[7] = test system: control cell lines (HACAT, HEK293T, CRL-7250, NIH-3T3); experiment: qHTS cell viability, control cell lines as a group (mean AUC, Control.avg); assay type: cell-based
[8] = test system: HACAT cells; experiment: qHTS cell viability (CellTiter-Glo, 72 h; primary screen), control cell line; assay type: cell-based, human
[9] = test system: MCC13 cells (VN-MCC); experiment: qHTS cell viability (CellTiter-Glo, 72 h; primary and follow-up small molecule screen); assay type: cell-based, human
[10] = test system: MCC cell lines (WAGA, MKL-1, MKL-2, MCC13, MCC26, UISO); experiment: qHTS cell viability, all six MCC cell lines as a group (mean AUC, MCC.avg); assay type: cell-based, human
[11] = test system: six MCC cell lines and four control cell lines; experiment: qHTS cell viability, all 10 cell lines screened; assay type: cell-based
[12] = test system: VP-MCC cell lines (WAGA, MKL-1, MKL-2); experiment: qHTS cell viability, VP-MCC cell lines as a group (mean AUC, VP.MCC.avg); assay type: cell-based, human
[13] = test system: NIH-3T3 cells; experiment: qHTS cell viability (CellTiter-Glo, 72 h; primary screen), control cell line; assay type: cell-based, mouse
[14] = test system: VN-MCC cell lines (MCC13, MCC26, UISO); experiment: qHTS cell viability, VN-MCC cell lines as a group (mean AUC, VN.MCC.avg); assay type: cell-based, human
[15] = test system: MCC26 cells (VN-MCC); experiment: qHTS cell viability (CellTiter-Glo, 72 h; primary and follow-up small molecule screen); assay type: cell-based, human
[16] = test system: MKL-2 cells (VP-MCC); assay type: cell-based, human
Protocol: (§1) A non-targeting control (Silencer Select Negative Control No. 2 siRNA) and a positive control (AllStars Cell Death Control siRNA) were used as controls. Lipofectamine RNAiMax (Thermo Fisher Scientific, Grand Island, NY) was obtained as the transfection reagent. […] Three siRNAs per gene were arrayed in 384 well plates, one siRNA per well. […] Cell viability was measured by CellTiter-Glo assay following the manufacturer's instructions (G7572; Promega, Madison, WI, USA) 96 h after siRNA transfection. Assay plates were measured using BMG Pherastar plate reader Three different siRNAs (sequences: [NT], and [NT] targeting INCENP as well as negative non-targeting siRNA control were purchased from Thermo Fisher Scientific (Grand Island, NY).

[17] = test system: MCC26 cells (VN-MCC); assay type: cell-based, human
Protocol: as §1

Row | Compound | HEK293T_AUC [1] | UISO_AUC [2] | MKL1_AUC [3] | MKL2_AUC [4] | WAGA_AUC [5] | CRL7250_AUC [6] | Control_Avg_AUC [7] | HACAT_AUC [8] | MCC13_AUC [9] | MCC_Avg_AUC [10] | Control-MCC [11] | Control-VP-MCC [12] | VP-MCC_Avg_AUC [12] | NIH3T3_AUC [13] | Control-VN-MCC [14] | VN-MCC_Avg_AUC [14] | MCC26_AUC [15] | Percent viability [16] [%] | Percent viability [17] [%]
1 | CCOc1cc(N2CCC(O)CC2)ccc1Nc1ncc2c(n1)N(C)c1ccccc1C(=O)N2C [XMD8-92] | 449.91 | 455.545 | 404.412 | 364.829 | 403.248 | 459.588 | 459.068 | 464.723 | 476.46 | 427.79 | 31.2771 | 68.2382 | 390.829 | 462.049 | -5.684 | 464.751 | 462.249 |  | 
2 | AAAUGUUGAUCUCCUUUCC (chemistry not given here) |  |  |  |  |  |  |  |  |  |  |  |  |  |  |  |  |  | 84.7 | 97.2
3 | AGAUCAACCCAGAUAACUAtt (AGAUCAACCCAGAUAACUATT; chemistry not given here) |  |  |  |  |  |  |  |  |  |  |  |  |  |  |  |  |  | 48.5 | 73.1
